Test results as given in patent publication US10172875B2, “Therapeutic combinations comprising anti-FOLR1 immunoconjugates” (ImmunoGen, Inc., priority 2015, dated 2019).
Like-named read-outs stand apart in the source and are kept apart here.

Columns and labels:
[1] = tested on: OV90 ovarian tumor xenografts; assay: Antitumor activity of carboplatin doublets and triple-combinations in OV90 tumor model (Example 8); type: in vivo, SCID mice; conditions: single doses: IMGN853 5 mg/kg, carboplatin 100 mg/kg, bevacizumab 5 mg/kg, paclitaxel 10 mg/kg
Text: (§1) All treatments consisted of single doses (1×).
FIG. 7 depicts the results.

[2] = tested on: platinum-sensitive PDX tumors; assay: Carboplatin doublets QWx2 in platinum-sensitive PDX (FIG. 9E); type: in vivo, mice; conditions: PLD 4 mg/kg or IMGN853 5 mg/kg
Description: The combinatorial benefit conferred by IMGN853/carboplatin treatment was compared with clinically relevant chemotherapeutic combinations in the same PDX model. Tumor-bearing animals received two consecutive weekly doses (QWx2) of carboplatin (80 mg/kg, i.p.) in combination with i.v. paclitaxel (10 mg/kg), PLD (4 mg/kg), or IMGN853 (5 mg/kg). As expected, treatment with the carboplatin-paclitaxel doublet was efficacious in this model of platinum sensitivity (FIG. 9E). […] The higher incidence of CRs was strongly indicative of a better durability of response for the combination, and overall the data further supports the combination of IMGN853 with carboplatin for improving response to platinum therapy in EOC.

[3] = tested on: OV90 serous ovarian tumor xenografts; assay: Antitumor activity of IMGN853 (2.5 mg/kg), bevacizumab and combination in OV90 tumor model (Example 3); type: in vivo, SCID mice; conditions: IMGN853 2.5 mg/kg 1× and/or bevacizumab 5 mg/kg 1×
Text: FIG. 2B depicts the results.

OV-90 xenografts [4] = assay: Fractionated bevacizumab dosing with IMGN853 in OV-90 xenografts (FIG. 11A); type: in vivo, mice; conditions: IMGN853 3 mg/kg; bevacizumab single 5 mg/kg dose or two 2.5 mg/kg doses (QWx2); monotherapy or combination
[5] = tested on: platinum-resistant ovarian cancer PDXs; assay: IMGN853 with bevacizumab in platinum-resistant ovarian cancer PDX, 102-day study (FIG. 11B); type: in vivo, mice
Text: Tumor growth was monitored out to 102 days. * P=0.011; ** P=0.018; ns, not significant (Wilcoxon test, non-adjusted).

[6] = tested on: OV90 serous ovarian tumor xenografts; assay: Antitumor activity of IMGN853 (1.25 mg/kg), paclitaxel, bevacizumab and combinations in OV90 tumor model (Example 4); type: in vivo, SCID mice; conditions: single doses: IMGN853 1.25 mg/kg, paclitaxel 10 mg/kg, bevacizumab 5 mg/kg; for T/C: alone or combined; for CR: responders/animals
Description: Mice were randomized into groups (n=8 per group) by tumor volume and subsequently dosed on Day 14 post-inoculation. All treatments consisted of single doses (1×).
Tumor volumes were measured one to two times weekly in three dimensions using a caliper. […] Body weights were measured twice per week as an index of toxicity.

[7] = tested on: IGROV-1 ovarian tumor xenografts; assay: Antitumor activity of IMGN853, bevacizumab and combination in IGROV-1 tumor model (Example 5); type: in vivo, SCID mice; conditions: IMGN853 5 mg/kg 1× and/or bevacizumab 5 mg/kg 1×
Text: as §1
FIG. 4 depicts the results.

[8] = tested on: ST088 human epithelial ovarian cancer (EOC) patient-derived tumor xenografts; assay: Antitumor activity of IMGN853, bevacizumab, paclitaxel and combinations in ST088 tumor model (Example 6); type: in vivo, SCID mice; conditions: QWx2: IMGN853 5 mg/kg, bevacizumab 5 mg/kg, paclitaxel 10 mg/kg; for T/C: alone or combined; for CR / PR: responders/animals
Description: Tumor volumes were measured twice weekly in three dimensions using a caliper.

OV-90 xenografts [9] = assay: OV-90 tumors harvested 4 days post-dosing: histology, γH2AX, CD31, anti-maytansine (FIGS. 12A-12C); type: in vivo, mice; conditions: IMGN853 2.5 mg/kg and/or bevacizumab 5 mg/kg; day 4
Description: Original magnification, 4×; scale bars, 2 mm (for Combination panel, 600 μm).
For each group, representative micrographs from one of three tumors are shown. Original magnification, 20×; scale bars, 200 μm.
Next, as a pharmacodynamic readout, tumor γH2AX levels were measured by immunoblotting (FIG. 12B).
While genotoxic insults are the primary inducers of γH2AX, accumulation of this protein can also occur in response to hypoxia. […] In order to examine treatment-related effects on microvessels, immunohistochemical staining with the endothelial cell marker CD31 was performed (FIG. 12C, upper panel).

[10] = tested on: OV90 serous ovarian tumor xenografts; conditions: IMGN853 5 mg/kg 1× and/or bevacizumab 5 mg/kg 1×
Description: Mice were randomized into groups (n=6 per group) by tumor volume and subsequently dosed on Day 14 post-inoculation.
Tumor volumes were measured one to two times weekly in three dimensions using a caliper. The tumor volume was expressed in mm^3 using the formula V=Length×Width×Height×½ (Tomayko and Reynolds, Cancer Chemother. Pharmacol. 24:148-54 (1989)) Body weights were measured twice per week as an index of toxicity. Activity was assessed as described in Bissery et al. (1991).

[11] = tested on: H2110 non-small cell lung cancer (NSCLC) tumor xenografts
Description: Mice were randomized into groups (n=6-10 per group) by tumor volume and subsequently dosed on Day 7 post-inoculation. All treatments consisted of single doses (1×).
Tumor volumes were measured one to two times weekly in three dimensions using a caliper. The tumor volume was expressed in mm^3 using the formula V=Length×Width×Height×½ (Tomayko 1989). Body weights were measured twice per week as an index of test agent toxicity. Activity was assessed as described in Bissery et al. (1991).

[12] = tested on: OV90 serous ovarian tumor xenografts; assay: Antitumor activity of IMGN853, cediranib and combination in OV90 tumor model (Example 9); type: in vivo, SCID mice; conditions: IMGN853 2.5 mg/kg 1× and/or cediranib 1.5 mg/kg qd×5
Text: The term “respond favorably” generally refers to causing a beneficial state in a subject. With respect to cancer treatment, the term refers to providing a therapeutic effect on the subject. Positive therapeutic effects in cancer can be measured in a number of ways (See, W. A. Weber, J. Nucl. Med. 50:1S-10S (2009)). For example, tumor growth inhibition, molecular marker expression, serum marker expression, and molecular imaging techniques can all be used to assess therapeutic efficacy of an anti-cancer therapeutic. Log10 Cell Kill (LCK) can be used to quantify the tumor cell kill. Log10 cell kill (LCK) is calculated with the formula LCK=(T−C)/Td×3.32, where (T−C) (or tumor growth delay (TGD)) is the median time (in days) for the treatment group and control group tumors to reach a predetermined size (tumor-free survivors excluded). Td is the tumor doubling time (estimated from nonlinear exponential curve fit of daily median of control tumor growth), and 3.32 is the number of cell doublings per log of cell growth. The ability to reduce tumor volume may be assessed, for example, by measuring a % T/C value, which is the median tumor volume of treated subjects divided by the median tumor volume of the control subjects. With respect to tumor growth inhibition, according to NCI standards, a T/C≤42% is the minimum level of anti-tumor activity. A T/C<10% is considered a high anti-tumor activity level, with T/C (%)=Median tumor volume of the treated/Median tumor volume of the control×100. A favorable response can be assessed, for example, by increased progression-free survival (PFS), disease-free survival (DFS), or overall survival (OS), complete response (CR), partial response (PR), or, in some cases, stable disease (SD), a decrease in progressive disease (PD), a […] time to progression (TTP), a decrease in CA125 in the case of ovarian cancer, or any combination thereof.

IGROV-1 cells = assay: Cell cycle analysis, IMGN853 and carboplatin (FIG. 9B); type: cell-based; conditions: carboplatin 20 μM, IMGN853 8 nM, alone or combined, 6 hours, then 24 hour drug-free medium
Description: Cells were washed, and cell cycle distribution determined following 24 hour culture in drug-free medium.

[13] = tested on: platinum-sensitive ovarian cancer patient derived xenografts (PDXs); assay: IMGN853 and carboplatin, single administration, in platinum-sensitive ovarian cancer PDX (FIG. 9D); type: in vivo, SCID mice; conditions: single administration: IMGN853 2.5 mg/kg and/or carboplatin 80 mg/kg; day 39
Description: Data are expressed as mean and standard error of the mean (SEM) for each time point.
To examine whether these in vitro cellular effects translated to improved efficacy in vivo, mice bearing patient-derived xenografts (PDX) obtained from an individual with EOC were treated with IMGN853 and carboplatin, both as single agents and in combination (FIG. 9D). […] Animals received a single administration of IMGN853 (2.5 mg/kg) or carboplatin (80 mg/kg), and each regimen inhibited tumor growth as monotherapy (T/C values of 43% and 20% on day 39, respectively).

[14] = IMGN853 3 mg/kg 1× and/or bevacizumab 5 mg/kg 1×
[15] = IMGN853 3 mg/kg 1× and/or bevacizumab 5 mg/kg 1×, responders/animals

## paclitaxel+carboplatin
[1]
  T/C: 45%
  TFS: 0/6
  antitumor activity rating: inactive
  body weight loss (BWL) at nadir: 11.1%
[1]; responders/animals
  CR: 0/6
[2]; QWx2: carboplatin 80 mg/kg i.p. with i.v. paclitaxel 10 mg/kg
  antitumor effect: efficacious
[2]; QWx2: carboplatin 80 mg/kg i.p. with paclitaxel 10 mg/kg
  tolerability: well tolerated
[2]; QWx2: carboplatin 80 mg/kg i.p. with paclitaxel 10 mg/kg, n=7 mice/group
  complete regressions (CR): none

## bevacizumab: recombinant humanized monoclonal IgG1 anti-VEGF antibody; active ingredient in Avastin [reference compound]
[3]
  T/C: 31%
  TFS: 0/6
  antitumor activity rating: active
[3]; responders/animals
  CR: 0/6
OV-90 xenografts [4]
  antitumor effect: Split-dosing had no effect
[5]; 5 mg/kg QWx2, over the course of a 102-day study
  CRs: no CRs
[5]; IMGN853 5 mg/kg QWx2, bevacizumab 5 mg/kg QWx2, alone or combined
  antitumor effect: prolonged growth control
[6]
  TFS: 0/8
  antitumor activity rating: active
  T/C: 22%
  CR: 0/8
[7]
  T/C: 51%
  TFS: 0/4
  antitumor activity rating: inactive
[7]; responders/animals
  CR: 0/4
[8]
  antitumor activity rating: highly active
  T/C: 6%
  CR: 0/8
  PR: 0/8
OV-90 xenografts [9]
  tumor microvessels, CD31 immunohistochemical staining: decreased in size and showed loss of luminal integrity
[10]
  T/C: 37%
  antitumor activity rating: active
  tumor free survivors (TFS): 0/6
[10]; responders/animals
  CR: 0/6
[11]; [14]
  T/C: 22%
  TFS: 0/6
  antitumor activity rating: active
[11]; [15]
  CR: 0/6
  PR: 0/6
[11]; bevacizumab 5 mg/kg monotherapy, Day 49 post-inoculation
  body weight loss: 9%

## COc1cc2c(Oc3ccc4[nH]c(C)cc4c3F)ncnc2cc1OCCCN1CCCC1 [cediranib, reference compound]
[12]
  T/C: 80%
  antitumor activity rating: inactive
[12]; Log10 cell kill
  LCK: 0.1
[12]; responders/animals
  PR: 0/6
[12]; tumor growth delay
  T−C: 4 days

## CC(=O)O[C@H]1C(=O)[C@@]2(C)[C@H]([C@H](OC(=O)c3ccccc3)[C@]3(O)C[C@H](OC(=O)[C@H](O)[C@@H](NC(=O)c4ccccc4)c4ccccc4)C(C)=C1C3(C)C)[C@]1(OC(C)=O)CO[C@@H]1C[C@@H]2O [paclitaxel]
[6]
  TFS: 0/6
  antitumor activity rating: inactive
  T/C: 94%
  CR: 0/6
[8]
  antitumor activity rating: inactive
  T/C: 71%
  CR: 0/8
  PR: 0/8

## N.N.O=C([O-])C1(C(=O)[O-])CCC1.[Pt+2] [carboplatin, reference compound]
IGROV-1 cells
  cell cycle distribution: accumulation of IGROV-1 cells in both the S and G2/M phases
[13]
  T/C: 20%
